In brackets after ≈: the same amount, converted by molar mass.
Tests used:
cells = conditions: Homo sapiens, Breast carcinoma cell
NCI-H1299 [1] = assay: cells; conditions: Homo sapiens, NCI-H1299, 48 h
A549 [2] = assay: cells; conditions: Homo sapiens, A549, 48 h
NCI-H1299 [3] = assay: cells; conditions: Homo sapiens
MDA-MB-231 [4] = assay: cells; conditions: Homo sapiens, MDA-MB-231, 48 h
HepG2 [5] = assay: cells; conditions: Homo sapiens, HepG2, 48 h
MCF7 [6] = assay: cells; conditions: Homo sapiens, MCF7, 48 h
HepG2 [7] = assay: cells; conditions: Homo sapiens, HepG2, 48 h; remark: listed apart in the source
MCF7 [8] = assay: cells; conditions: Homo sapiens, MCF7, 48 h; remark: listed apart in the source
HepG2 [9] = assay: cells; conditions: Homo sapiens, HepG2, 48 h; remark: listed apart in the source
HCT-116 [10] = assay: cells; conditions: Homo sapiens, HCT-116, 48 h
HepG2 [11] = assay: cells; conditions: Homo sapiens, HepG2, 48 h; remark: listed apart in the source
HepG2 [12] = assay: cells; conditions: Homo sapiens, HepG2, 24 h
HCT-116 [13] = assay: cells; conditions: Homo sapiens, HCT-116, 24 h
A549 [14] = assay: cells; conditions: Homo sapiens, A549, 48 h; remark: listed apart in the source
MDA-MB-231 [15] = assay: cells; conditions: Homo sapiens, MDA-MB-231, 48 h; remark: listed apart in the source
NCI-H1299 [16] = assay: cells; conditions: Homo sapiens, NCI-H1299, 48 h; remark: listed apart in the source
HCT-116 [17] = assay: cells; conditions: Homo sapiens
HepG2 [18] = assay: cells; conditions: Homo sapiens
MCF7 [19] = assay: cells; conditions: Homo sapiens, MCF7, 48 h; remark: listed apart in the source
A549 [20] = assay: cells; conditions: Homo sapiens, A549, 72 h
U-87 MG = assay: cells; conditions: Homo sapiens, 72 h
HCT-116 [21] = assay: cells; conditions: Homo sapiens, HCT-116, 72 h
HCT-116 [22] = assay: cells; conditions: Homo sapiens, HCT-116, 48 h; remark: listed apart in the source
HepG2 [23] = assay: cells; conditions: Homo sapiens; remark: listed apart in the source
HCT-116 [24] = assay: cells; conditions: Homo sapiens; remark: listed apart in the source
[25] = tested on: Mycobacterium tuberculosis; assay: microbe, parasite or virus in culture; conditions: H37Rv
[26] = tested on: Mycobacterium tuberculosis; assay: microbe, parasite or virus in culture; conditions: H37Rv ATCC 27294, 168 h
Streptococcus pyogenes [27] = assay: microbe, parasite or virus in culture; conditions: ATCC 19615
Staphylococcus aureus [28] = assay: microbe, parasite or virus in culture; conditions: ATCC 25923
A549 [29] = assay: cells; conditions: Homo sapiens, A549, 48 h; remark: listed apart in the source
MCF7 [30] = assay: cells; conditions: Homo sapiens, MCF7, 48 h; remark: listed apart in the source
MCF7 [31] = assay: cells; conditions: Homo sapiens
MCF7 [32] = assay: cells; conditions: Homo sapiens; remark: listed apart in the source
HCT-116 [33] = assay: cells; conditions: Homo sapiens; remark: listed apart in the source
MCF7 [34] = assay: cells; conditions: Homo sapiens, MCF7, 24 h
MCF7 [35] = assay: cells; conditions: Homo sapiens, MCF7, 48 h; remark: listed apart in the source
Trichoderma viride = assay: microbe, parasite or virus in culture
Escherichia coli = assay: microbe, parasite or virus in culture
Klebsiella pneumoniae = assay: microbe, parasite or virus in culture
Streptococcus pyogenes [36] = assay: microbe, parasite or virus in culture
Candida albicans = assay: microbe, parasite or virus in culture
Staphylococcus aureus [37] = assay: microbe, parasite or virus in culture
Aspergillus niger = assay: microbe, parasite or virus in culture
Bacillus subtilis = assay: microbe, parasite or virus in culture

CC(C)(C)CC(C)(C)Nc1nc2ccccc2c2c(C(=O)c3ccc(F)cc3)c(N)nn12
IC50 (cells): < 2.5 µM
IC50 (NCI-H1299 [1]): 1.32 µM
IC50 (A549 [2]): 1.06 µM
IC50 (NCI-H1299 [3]): < 2.5 µM
IC50 (MDA-MB-231 [4]): 1.93 µM

c1ccc(Nc2ccccc2-c2nc3ccccc3c3nc(-c4ccccc4)nn23)cc1
IC90 (HepG2 [5]): 59.9 µg/mL (≈ 145 µM)
IC90 (MCF7 [6]): 137 µg/mL (≈ 332 µM)
IC50 (HepG2 [7]): 33.3 µg/mL (≈ 80.5 µM)
IC50 (MCF7 [8]): 87 µg/mL (≈ 210 µM)

Oc1ccc(/C=N/Nc2nc3ccccc3c3nncn23)cc1
IC50 (HepG2 [9]): 4.43 µM
IC50 (HCT-116 [10]): 48.5 µM

c1ccc(C2CC(c3ccc(Nc4nc5ccccc5c5nncn45)cc3)=NN2)cc1 (configuration not stated)
IC50 (HepG2 [11]): 16.1 µM

O=C(N/N=C/c1ccccc1O)c1ccc(Nc2nc3ccccc3c3nncn23)cc1
IC50 (HepG2 [12]): 7.42 µM
IC50 (HCT-116 [13]): 7.1 µM

S=C(NNc1nc2ccccc2c2nncn12)NC1CCCCC1
IC50 (DNA): 48.1 µM

O=[N+]([O-])c1ccc(-c2nc3ccccc3c3cc4ccccc4n23)cc1
IC50 (A549 [14]): 30.7 µM

Oc1ccc(-c2nc3ccccc3c3cc(-c4ccccc4)nn23)cc1
GI50 (MDA-MB-231 [15]): 1.95 µM
GI50 (NCI-H1299 [16]): 2.97 µM

Cc1nc2ccccc2c2cc3ccccc3n12
IC50 (A549 [14]): 30.7 µM

Cc1ccc(-c2nc3ccccc3c3cc4cc(Cl)ccc4n23)cc1
IC50 (A549 [14]): 30.7 µM

c1ccc(-c2nc3ccccc3c3cccn23)cc1
IC50 (A549 [14]): 30.7 µM

Cc1ccc(C2CC(c3ccc(Nc4nc5ccccc5c5nncn45)cc3)=NN2)cc1 (configuration not stated)
IC50 (HepG2 [11]): 16.1 µM

Clc1cccc(Cl)c1/C=N/Nc1nc2ccccc2c2nncn12
IC50 (HCT-116 [17]): 5.22 µM
IC50 (HepG2 [18]): 4.43 µM

O=c1nc2c3cc(Cl)c(Br)cc3ncn2c(O)c1-c1ccccc1
IC50 (MCF7 [19]): 3.44 µg/mL (≈ 8.54 µM)

COC(=O)c1nn2c(NC(C)(C)C)nc3cc(Cl)ccc3c2c1C(=O)OC
IC50 (A549 [20]): 1.1 µM
IC50 (U-87 MG): 2.6 µM
IC50 (HCT-116 [21]): 2.3 µM

COc1ccc(-c2cc(-c3ccc(Nc4nc5ccccc5c5nncn45)cc3)nc(=O)[nH]2)cc1
IC50 (HCT-116 [22]): 11.8 µM

O=C(NNc1nc2ccccc2c2nncn12)NC1CCCCC1
IC50 (HepG2 [23]): 7.98 µM
IC50 (DNA): 42.9 µM
IC50 (HCT-116 [24]): 5.57 µM

COc1ccc(-c2nc3ccccc3c3cc4cc(Cl)ccc4n23)cc1
IC50 (A549 [14]): 30.7 µM

COc1ccc(C(=O)c2c(N)nn3c(NC(C)(C)CC(C)(C)C)nc4ccccc4c23)cc1
IC50 (NCI-H1299 [1]): 2.04 µM
IC50 (A549 [2]): 1.74 µM
IC50 (MDA-MB-231 [4]): 2.45 µM

COc1cccc2c1C(=O)c1c(O)c3c(c(O)c1C2=O)C[C@@](O)(C(=O)CO)C[C@@H]3O[C@H]1C[C@H](N)[C@H](O)[C@H](C)O1 [DOXORUBICIN]
IC50 (HepG2 [11]): 7.94 µM
IC50 (HCT-116 [17]): 9.63 µM
IC50 (DNA): 31.3 µM

CCCc1nc2ccccc2c2nc3ccccc3n12
IC50 [25]: 0.78 µg/mL (≈ 2.98 µM)
IC50 [26]: 0.78 µg/mL (≈ 2.98 µM)

COc1ccc(-c2nc3ccccc3c3cc4ccccc4n23)cc1
IC50 (A549 [14]): 30.7 µM

Cc1ccc(S(=O)(=O)Oc2ccc(-c3nc4ccccc4c4nc(=S)[nH]n34)cc2)cc1
MIC (Streptococcus pyogenes [27]): 6.25 µg/mL (≈ 13.9 µM)
MIC (Staphylococcus aureus [28]): 3.12 µg/mL (≈ 6.97 µM)

O=C(N/N=C/c1ccccc1Cl)c1ccc(Nc2nc3ccccc3c3nncn23)cc1
IC50 (HepG2 [12]): 4.88 µM
IC50 (HCT-116 [13]): 5.21 µM

CC(C)(C)CC(C)(C)Nc1nc2ccccc2c2c(C#N)c(N)nn12
IC50 (cells): < 2.5 µM
IC50 (NCI-H1299 [1]): 2.02 µM
IC50 (NCI-H1299 [3]): < 2.5 µM
IC50 (MDA-MB-231 [4]): 1.96 µM

c1ccc2cc(-c3cc4c5ccccc5ncn4n3)ccc2c1
GI50 (A549 [29]): 1.98 µM
GI50 (MCF7 [30]): 2.03 µM

O=C(/C=C\c1nc2ccccc2c2nc3ccccc3n12)c1ccc(Cl)c(Cl)c1
IC50 (MCF7 [31]): 61 µg/mL (≈ 146 µM)
IC50 (MCF7 [32]): 61 µg/mL (≈ 146 µM)

Cc1ccc(-c2nc3ccccc3c3cc4ccccc4n23)cc1
IC50 (A549 [14]): 30.7 µM

N#CC1=CC=C2c3cc(Cl)c(Br)cc3N=CN2C1N (configuration not stated)
IC50 (MCF7 [19]): 3.45 µg/mL (≈ 10.3 µM)

Cc1ccc2nc(-c3ccccc3)n3c4ccccc4cc3c2c1
IC50 (A549 [14]): 30.7 µM

Clc1ccc2c(c1)cc1c3ccccc3nc(-c3ccccc3)n21
IC50 (A549 [14]): 30.7 µM

CCCc1nc2cc(C)ccc2c2nc3ccccc3n12
IC50 [25]: 12.5 µg/mL (≈ 45.4 µM)
IC50 [26]: 0.4 µg/mL (≈ 1.45 µM)

CN(C)c1nc2ccccc2c2nncn12
IC50 (HCT-116 [33]): 22.5 µM

CCOC(=O)c1ccc2c3cc(Cl)c(Br)cc3ncn2c1=O
IC50 (MCF7 [34]): 3.44 µg/mL (≈ 9.01 µM)

O=C(N/N=C/c1ccc(Cl)cc1)c1ccc(Nc2nc3ccccc3c3nncn23)cc1
IC50 (HepG2 [12]): 8.64 µM
IC50 (HCT-116 [13]): 11 µM

FC(F)(F)c1nc2ccccc2c2cc3cc(Cl)ccc3n12
IC50 (A549 [14]): 30.7 µM

Clc1ccc2nc(-c3ccccc3)n3c4ccccc4cc3c2c1
IC50 (A549 [14]): 30.7 µM

Cc1ccc(-c2cc(-c3ccc(Nc4nc5ccccc5c5nncn45)cc3)nc(=O)[nH]2)cc1
IC50 (HCT-116 [22]): 11.8 µM

c1ccc(-c2nc3ncccc3c3cc4ccccc4n23)cc1
IC50 (A549 [14]): 30.7 µM

c1ccc(-c2nc3ccccc3c3cc4ccccc4n23)cc1
IC50 (A549 [14]): 30.7 µM

COc1ccc(C2CC(c3ccc(Nc4nc5ccccc5c5nncn45)cc3)=NN2)cc1 (configuration not stated)
IC50 (HepG2 [11]): 16.1 µM

O=c1nc(-c2ccc(Nc3nc4ccccc4c4nncn34)cc2)cc(-c2ccccc2)[nH]1
IC50 (HCT-116 [22]): 11.8 µM

Clc1cc2c(cc1Br)ncn1cnnc21
IC50 (MCF7 [35]): 3.39 µg/mL (≈ 12 µM)

N#Cc1ccc2c3cc(Cl)c(Br)cc3ncn2c1=O
IC50 (MCF7 [19]): 4.1 µg/mL (≈ 12.3 µM)

FC(F)(F)c1ccc2c(c1)cc1c3ccccc3nc(-c3ccccc3)n21
IC50 (A549 [14]): 30.7 µM

CN(C)c1ccc(/C=N/NC(=O)c2ccc(Nc3nc4ccccc4c4nncn34)cc2)cc1
IC50 (HepG2 [12]): 7.91 µM
IC50 (HCT-116 [13]): 8.27 µM

Cc1c(O)n2cnc3cc(Br)c(Cl)cc3c2nc1=O
IC50 (MCF7 [19]): 3.5 µg/mL (≈ 10.3 µM)

Clc1ccc(-c2nc3ccccc3c3cc4cc(Cl)ccc4n23)cc1
IC50 (A549 [14]): 30.7 µM

O=C(N/N=C/c1c(Cl)cccc1Cl)c1ccc(Nc2nc3ccccc3c3nncn23)cc1
IC50 (HepG2 [12]): 5.42 µM
IC50 (HCT-116 [13]): 7.41 µM

Cc1ccc2c(c1)cc1c3ccccc3nc(-c3ccccc3)n21
IC50 (A549 [14]): 30.7 µM

Nc1ccccc1-c1cc2ccccc2[nH]1
MIC (Trichoderma viride): 2.5 µg/mL (≈ 12 µM)
MIC (Escherichia coli): 2.5 µg/mL (≈ 12 µM)
MIC (Klebsiella pneumoniae): 2.5 µg/mL (≈ 12 µM)
MIC (Streptococcus pyogenes [36]): 2.5 µg/mL (≈ 12 µM)
MIC (Candida albicans): 2.5 µg/mL (≈ 12 µM)
MIC (Staphylococcus aureus [37]): 2.5 µg/mL (≈ 12 µM)
MIC (Aspergillus niger): 2.5 µg/mL (≈ 12 µM)
MIC (Bacillus subtilis): 2.5 µg/mL (≈ 12 µM)

Clc1ccc(-c2nc3ccccc3c3cc4ccccc4n23)cc1
IC50 (A549 [14]): 30.7 µM

CCOC(=O)c1nn2c(NC(C)(C)CC(C)(C)C)nc3ccccc3c2c1C(=O)OCC
GI50 (A549 [29]): 1.1 µM
GI50 (NCI-H1299 [16]): 1.29 µM

From ChEMBL document CHEMBL5614371, “Quinazolines annelated at the N(3)-C(4) bond: Synthesis and biological activity” (Eur J Med Chem, 2024)
